In the NIST ThermoML archive (doi:10.1021/je800334m):

Test: excess molar enthalpy (molar enthalpy of mixing); xn = mol fraction of the nth substance listed
Conditions: Liquid, Flow calorimetry

CN(C)CCO [2-(N,N-dimethylamino)ethanol] + CCO
excess molar enthalpy [kcal/mol]
Conditions | 298.2 K | 313.2 K | 328.2 K
100 kPa, x1 = 0.0717 | -0.035 | -0.0369 | –
100 kPa, x1 = 0.1392 | -0.0579 | -0.0621 | –
100 kPa, x1 = 0.2028 | – | -0.0786 | –
100 kPa, x1 = 0.2034 | – | – | -0.0744
100 kPa, x1 = 0.2054 | -0.0763 | – | –
100 kPa, x1 = 0.2654 | – | – | -0.0854
100 kPa, x1 = 0.2665 | -0.0874 | -0.0911 | –
100 kPa, x1 = 0.3253 | – | – | -0.092
100 kPa, x1 = 0.3264 | -0.0938 | -0.0978 | –
100 kPa, x1 = 0.3839 | – | – | -0.0953
100 kPa, x1 = 0.3845 | -0.0975 | -0.101 | –
100 kPa, x1 = 0.4385 | – | – | -0.0962
100 kPa, x1 = 0.4399 | -0.0983 | -0.102 | –
100 kPa, x1 = 0.4916 | -0.0967 | -0.1 | –
100 kPa, x1 = 0.4924 | – | – | -0.094
100 kPa, x1 = 0.5427 | -0.0933 | -0.0963 | -0.0913
100 kPa, x1 = 0.591 | – | – | -0.0857
100 kPa, x1 = 0.5925 | -0.0886 | -0.0911 | –
100 kPa, x1 = 0.6393 | – | – | -0.0799
100 kPa, x1 = 0.6409 | -0.0822 | -0.0846 | –
100 kPa, x1 = 0.683 | – | -0.0777 | –
100 kPa, x1 = 0.6848 | – | – | -0.0727
100 kPa, x1 = 0.6874 | -0.0745 | – | –
100 kPa, x1 = 0.727 | – | -0.0695 | –
100 kPa, x1 = 0.7296 | – | – | -0.065
100 kPa, x1 = 0.7314 | -0.0665 | – | –
100 kPa, x1 = 0.7727 | -0.0592 | -0.0602 | –
100 kPa, x1 = 0.8108 | – | -0.0513 | –
100 kPa, x1 = 0.8157 | -0.0487 | – | –
100 kPa, x1 = 0.8553 | -0.0402 | -0.0402 | –
100 kPa, x1 = 0.8911 | -0.031 | -0.0309 | –
100 kPa, x1 = 0.9281 | -0.0203 | -0.0209 | –
100 kPa, x1 = 0.9663 | -0.00889 | -0.00985 | –
10000 kPa, x1 = 0.0699 | – | -0.037 | –
10000 kPa, x1 = 0.0721 | -0.0371 | – | –
10000 kPa, x1 = 0.1399 | -0.0613 | -0.0633 | –
10000 kPa, x1 = 0.2039 | -0.0767 | -0.0802 | –
10000 kPa, x1 = 0.2044 | – | – | -0.0752
10000 kPa, x1 = 0.265 | – | -0.0917 | –
10000 kPa, x1 = 0.2667 | – | – | -0.086
10000 kPa, x1 = 0.2678 | -0.0878 | – | –
10000 kPa, x1 = 0.3249 | – | -0.0989 | –
10000 kPa, x1 = 0.3267 | – | – | -0.0926
10000 kPa, x1 = 0.3279 | -0.0955 | – | –
10000 kPa, x1 = 0.3829 | -0.0988 | -0.102 | –
10000 kPa, x1 = 0.3835 | – | – | -0.0962
10000 kPa, x1 = 0.4381 | -0.0997 | -0.103 | -0.0965
10000 kPa, x1 = 0.4919 | – | – | -0.0945
10000 kPa, x1 = 0.4933 | -0.0979 | -0.101 | –
10000 kPa, x1 = 0.5421 | – | – | -0.0909
10000 kPa, x1 = 0.5443 | -0.0944 | -0.0972 | –
10000 kPa, x1 = 0.5902 | – | -0.0923 | –
10000 kPa, x1 = 0.5926 | – | – | -0.0858
10000 kPa, x1 = 0.5941 | -0.0891 | – | –
10000 kPa, x1 = 0.6383 | -0.0835 | -0.0856 | -0.0795
10000 kPa, x1 = 0.6845 | -0.0762 | -0.0782 | –
10000 kPa, x1 = 0.7283 | -0.0684 | -0.0701 | –
10000 kPa, x1 = 0.7739 | -0.0591 | -0.0605 | –
10000 kPa, x1 = 0.8118 | -0.0505 | -0.0517 | –
10000 kPa, x1 = 0.8511 | -0.0409 | -0.042 | –
10000 kPa, x1 = 0.8917 | -0.0305 | -0.0311 | –
10000 kPa, x1 = 0.9285 | -0.0202 | -0.021 | –
10000 kPa, x1 = 0.9665 | -0.00903 | -0.00989 | –
